Test: Treatment-emergent adverse events (MedDRA, NCI-CTCAE v4.03), safety populations
Type: in vivo, human
Conditions: Part B, 400 mg QD (N = 49)
Description: Overall safety in Parts A and B was assessed by tabulating TEAEs, coded using the Medical Dictionary for Regulatory Activities (MedDRA) version 22.1, and graded according to NCI-CTCAE v4.03 criteria. TEAEs were classified as related or unrelated to amcenestrant therapy based upon the local investigating physician’s clinical judgment. The safety population included all patients exposed to at least one dose of the study treatment. Results were analyzed using descriptive statistics.

O=C(O)c1ccc2c(c1)CCCC(c1ccc(Cl)cc1Cl)=C2c1ccc(O[C@H]2CCN(CCCF)C2)cc1 [amcenestrant, 6-(2,4-Dichlorophenyl)−5-[4-[(3S)−1-(3-fluoropropyl)pyrrolidin-3-yl]oxyphenyl]−8,9-dihydro-7H-benzo[7]annulene-2-carboxylic acid]
2 (4.1) n (%): Back pain, TEAEs, Grade 2 | Constipation, TEAEs, Grade 2 | Constipation, Treatment-related TEAEs, Grade 1 | Decreased appetite, TEAEs, Grade 2 | Decreased appetite, Treatment-related TEAEs, All Grades | Decreased appetite, Treatment-related TEAEs, Grade 1 | Depression, Treatment-related TEAEs, All Grades | Depression, Treatment-related TEAEs, Grade 1 | Diarrhea, TEAEs, Grade 2 | Dry skin, TEAEs, Grade 1 | Dyspnea, TEAEs, Grade 2 | Fatigue, TEAEs, Grade 2 | Fatigue, TEAEs, Grade ≥3 | Fatigue, Treatment-related TEAEs, All Grades | Fatigue, Treatment-related TEAEs, Grade 1
0 n (%): Back pain, TEAEs, Grade ≥3 | Back pain, Treatment-related TEAEs, All Grades | Back pain, Treatment-related TEAEs, Grade 1 | Back pain, Treatment-related TEAEs, Grade 2 | Back pain, Treatment-related TEAEs, Grade ≥3 | Constipation, TEAEs, Grade ≥3 | Constipation, Treatment-related TEAEs, Grade ≥3 | Cough, TEAEs, Grade 2 | Cough, TEAEs, Grade ≥3 | Cough, Treatment-related TEAEs, Grade 2 | Cough, Treatment-related TEAEs, Grade ≥3 | Decreased appetite, TEAEs, Grade ≥3 | Decreased appetite, Treatment-related TEAEs, Grade 2 | Decreased appetite, Treatment-related TEAEs, Grade ≥3 | Depression, TEAEs, Grade 2 | Depression, TEAEs, Grade ≥3 | Depression, Treatment-related TEAEs, Grade 2 | Depression, Treatment-related TEAEs, Grade ≥3 | Diarrhea, Treatment-related TEAEs, Grade 2 | Diarrhea, Treatment-related TEAEs, Grade ≥3 | Dry skin, TEAEs, Grade ≥3 | Dry skin, Treatment-related TEAEs, Grade 2 | Dry skin, Treatment-related TEAEs, Grade ≥3 | Dyspnea, TEAEs, Grade ≥3 | Dyspnea, Treatment-related TEAEs, Grade 2 | Dyspnea, Treatment-related TEAEs, Grade ≥3 | Edema peripheral, TEAEs, Grade 2 | Edema peripheral, TEAEs, Grade ≥3 | Edema peripheral, Treatment-related TEAEs, Grade 2 | Edema peripheral, Treatment-related TEAEs, Grade ≥3 | Fatigue, Treatment-related TEAEs, Grade 2 | Fatigue, Treatment-related TEAEs, Grade ≥3 | Gastroesophageal reflux disease, TEAEs, Grade 2 | Gastroesophageal reflux disease, TEAEs, Grade ≥3 | Gastroesophageal reflux disease, Treatment-related TEAEs, Grade 2 | Gastroesophageal reflux disease, Treatment-related TEAEs, Grade ≥3 | Headache, TEAEs, Grade 2 | Headache, TEAEs, Grade ≥3
3 (6.1) n (%): Back pain, TEAEs, Grade 1 | Constipation, Treatment-related TEAEs, All Grades | Depression, TEAEs, All grades | Depression, TEAEs, Grade 1 | Dry skin, TEAEs, All grades | Edema peripheral, TEAEs, All grades | Edema peripheral, TEAEs, Grade 1 | Gastroesophageal reflux disease, Treatment-related TEAEs, All Grades | Gastroesophageal reflux disease, Treatment-related TEAEs, Grade 1 | Headache, TEAEs, All grades | Headache, TEAEs, Grade 1
4 (8.2) n (%): Cough, TEAEs, All grades | Cough, TEAEs, Grade 1 | Gastroesophageal reflux disease, TEAEs, All grades | Gastroesophageal reflux disease, TEAEs, Grade 1
12 (24.5) n (%): Constipation, TEAEs, Grade 1 | Fatigue, TEAEs, All grades
14 (28.6) n (%): Constipation, TEAEs, All grades
7 (14.3) n (%): Decreased appetite, TEAEs, All grades
8 (16.3) n (%): Diarrhea, TEAEs, All grades | Dyspnea, TEAEs, All grades | Fatigue, TEAEs, Grade 1
5 (10.2) n (%): Back pain, TEAEs, All grades | Decreased appetite, TEAEs, Grade 1 | Diarrhea, TEAEs, Grade 1
1 (2.0) n (%): Constipation, Treatment-related TEAEs, Grade 2 | Cough, Treatment-related TEAEs, All Grades | Cough, Treatment-related TEAEs, Grade 1 | Diarrhea, TEAEs, Grade ≥3 | Diarrhea, Treatment-related TEAEs, All Grades | Diarrhea, Treatment-related TEAEs, Grade 1 | Dry skin, TEAEs, Grade 2 | Dry skin, Treatment-related TEAEs, All Grades | Dry skin, Treatment-related TEAEs, Grade 1 | Dyspnea, Treatment-related TEAEs, All Grades | Dyspnea, Treatment-related TEAEs, Grade 1 | Edema peripheral, Treatment-related TEAEs, All Grades | Edema peripheral, Treatment-related TEAEs, Grade 1
6 (12.2) n (%): Dyspnea, TEAEs, Grade 1

From publication PMC9284491 (Nature Communications, 2022)
